The structures appear in SMILES notation.

Consider four compounds from paper PMC11677243, “Target protein identification in live cells and organisms with a non-diffusive proximity tagging system” (eLife, 2024).

For assay [1], the target named is T1, VPS37C (Homo sapiens, UniProt A5D8V6).
T1 construct: expressed in transfected cells; host or cells: HEK293T
Nature of the assay: MST binding to Cy5-labeled VPS37C. The conditions noted are these: purified recombinant VPS37C; n = 2, mean ± s.d. The procedure: (§1) SEPHS2-2xV5, VPS37C-2xV5, VPS29, TRAPPC3, TOM1, and TOM1L2 were labeled using Cy5-NHS ester (A100932, Sangon Biotech, China). Briefly, each target protein was diluted to 10 µM in PBS and underwent buffer exchange with PBS using a Zeba spin desalting column (89882, Thermo Scientific, USA) to remove Tris. The labeling reaction consisted of 80 µl of 10 µM target protein, 10 µl of 1 M NaHCO3 pH 8.3, and 10 µl of 1 mM Cy5-NHS ester in DMSO, and was incubated at 4°C overnight. The next day, unlabeled dyes were removed using Zeba spin desalting columns, and labeling efficiency was assessed by measuring the concentration of Cy5 with a UV-Vis spectrophotometer (SMA5000, Merinton, China). […] Cy5-labeled SEPHS2-2xV5 (5 nM), VPS37C-2xV5 (5 nM), VPS29 (10 nM), TRAPPC3 (10 nM), TOM1 (10 nM), or TOM1L2 (10 nM) was mixed with the corresponding diluted compound in a total volume of 20 µl, and then loaded into Monolith premium capillaries (MO-K025, NanoTemper, Germany). Binding affinity analysis was performed using a NanoTemper Monolith NT.115 instrument (NanoTemper). Kd values were obtained using MO.Affinity Analysis 2.3.0 software (NanoTemper).

A further assay concerns the target T2, VPS29 (Homo sapiens, UniProt Q9UBQ0).
T2 construct: 6xHis (pET28a, Ni column purification); made in house; host or cells: E. coli BL21(DE3)
Nature of the assay: MST binding to Cy5-labeled VPS29. The procedure: as §1

For another assay, the target named is T3, TOM1 (Homo sapiens, UniProt O60784).
T3 construct: 6xHis (pET28a, Ni column purification); made in house; host or cells: E. coli BL21(DE3)
T3 sequence (O60784 whole entry): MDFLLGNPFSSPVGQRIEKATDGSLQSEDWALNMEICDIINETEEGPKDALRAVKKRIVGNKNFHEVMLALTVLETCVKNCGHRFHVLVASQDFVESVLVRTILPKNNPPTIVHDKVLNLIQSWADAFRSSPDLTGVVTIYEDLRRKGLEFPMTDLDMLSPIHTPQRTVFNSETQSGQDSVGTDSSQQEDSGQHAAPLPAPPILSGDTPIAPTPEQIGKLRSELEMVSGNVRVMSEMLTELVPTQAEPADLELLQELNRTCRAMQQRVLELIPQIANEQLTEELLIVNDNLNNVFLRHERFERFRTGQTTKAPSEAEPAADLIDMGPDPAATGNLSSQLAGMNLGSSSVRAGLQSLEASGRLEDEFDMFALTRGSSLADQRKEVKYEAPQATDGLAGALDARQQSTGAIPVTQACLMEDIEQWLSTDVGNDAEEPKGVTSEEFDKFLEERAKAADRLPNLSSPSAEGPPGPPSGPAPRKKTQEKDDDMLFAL
Nature of the assay: MST binding to Cy5-labeled TOM1. The conditions noted are these: n = 2. The method, then:
as §1

For another assay, the target named is T4, TOM1L2 (Homo sapiens, UniProt Q6ZVM7).
T4 construct: 6xHis (pET28a, Ni column purification); made in house; host or cells: E. coli BL21(DE3)
T4 sequence (Q6ZVM7 1-507): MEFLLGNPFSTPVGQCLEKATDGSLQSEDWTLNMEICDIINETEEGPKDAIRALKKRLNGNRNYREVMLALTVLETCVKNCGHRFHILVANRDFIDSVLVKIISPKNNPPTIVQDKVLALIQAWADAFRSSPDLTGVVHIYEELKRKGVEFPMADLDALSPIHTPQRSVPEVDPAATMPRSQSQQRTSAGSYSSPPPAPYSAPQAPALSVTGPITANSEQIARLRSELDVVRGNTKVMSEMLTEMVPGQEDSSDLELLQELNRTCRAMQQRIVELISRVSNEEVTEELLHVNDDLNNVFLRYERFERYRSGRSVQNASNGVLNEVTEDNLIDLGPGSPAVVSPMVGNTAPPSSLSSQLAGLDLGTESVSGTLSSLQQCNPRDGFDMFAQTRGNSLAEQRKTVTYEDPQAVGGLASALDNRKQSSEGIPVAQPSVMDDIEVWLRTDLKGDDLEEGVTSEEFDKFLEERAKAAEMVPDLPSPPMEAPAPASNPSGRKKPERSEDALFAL
Nature of the assay: MST binding to Cy5-labeled TOM1L2. The conditions noted are these: n = 2. The method, then:
as §1

Another assay deals with T5, TRAPPC3 (Homo sapiens, UniProt O43617).
T5 construct: 6xHis (pET28a, Ni column purification); made in house; host or cells: E. coli BL21(DE3)
T5 sequence (O43617 whole entry): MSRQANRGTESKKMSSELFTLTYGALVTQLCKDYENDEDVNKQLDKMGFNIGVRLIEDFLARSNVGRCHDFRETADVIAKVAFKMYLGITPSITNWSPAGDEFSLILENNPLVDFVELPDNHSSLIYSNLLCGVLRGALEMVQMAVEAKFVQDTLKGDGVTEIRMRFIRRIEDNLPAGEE
Nature of the assay: MST binding to Cy5-labeled TRAPPC3. The conditions noted are these: n = 2. The method, then:
as §1

In assay [2] the test system is LC3-II. Kind of assay: Autophagy inhibition by LC3-II western blot in HEK293T cells. The class given is cell-based, Homo sapiens. The following applies: 12 hr. From the text: (§2) Cells transfected and/or treated with different compounds were harvested at the end of treatment.
For orientation: Immunoblotting shows a protein as a band on a membrane.

The subject of assay [3] is LC3-II. Nature of the assay: Autophagy inhibition by LC3-II western blot in A375 cells. The class given is cell-based, Homo sapiens. The following applies: 12 hr.
From the text: as §2

The next assay has as its target T6, VPS37C-V5 (Homo sapiens, UniProt A5D8V6).
T6 construct: expressed in transfected cells; host or cells: HEK293T
Kind of assay: POST-IT labeling and streptavidin pulldown of VPS37C-V5 in HEK293T cells. The following applies: 200 nM DC661-H1 with 2 µM competitor. The class given is cell-based.

The target of assay [4] is T1, VPS37C. Kind of assay: Cellular thermal shift assay (CETSA) on cell lysates. The class given is binding. The following applies: 20 µM compound, 47°C to 59°C. The method, then:
[…] cells were cultured on a 100 mm dish and transfected with 10 µg of VPS37C-2xV5 plasmid. Forty-eight hours later, the cells were washed twice with ice-cold PBS, harvested in 1 ml of PBS buffer supplemented with 0.4% NP-40 and 0.5×protease inhibitor cocktail, incubated for 15 min with gently rotation at room temperature, and centrifuged at maximum speed for 15 min at 4°C. The supernatant was transferred to a new 1.5 ml microtube, and protein concentration was determined by a BCA assay. Cell lysates were diluted to a concentration of 2 mg/ml and divided into two groups. The drug group was treated with 20 µM of DC660 or HCQ, while the control group received the same amount of DMSO. After a 20 min incubation at room temperature, cell lysates were gently mixed and aliquoted into PCR tubes with 40 µl each, then subjected to heat treatment for 4 min, ranging from 47°C to 59°C in 2°C increments, and cooled to room temperature on a T100 thermal cycler (Bio-Rad, USA). Subsequently, cell lysates were transferred to 1.5 ml microtubes and centrifuged at maximum speed for 20 min at 4°C to precipitate unstable insoluble proteins. The supernatant was transferred to a new 1.5 ml microtube, and 10 µl of 5×SDS sample buffer was added to each tube. Samples were boiled at 95°C for 5 min and processed for western blot analysis.

For the next assay, the target named is T7, Myc-Halo^8KR-PafA (Rhodococcus rhodochrous, UniProt P0A3G2, A155T/A167V/A172T/A224E/C128F/C176G/D78G/E160R/E257R/H272N/K117R/K124R/K175M/K195N/K236R/K263R/K71R/K74R/L47V/L88M/N227D/P291S/S58T/T264A/Y273L/Y87F).
T7 construct: 6xHis (Ni column purification); made in house; host or cells: E. coli BL21(DE3)
T7 sequence (P0A3G2 other isoform, or with tags, fused parts or gaps with the stated changes): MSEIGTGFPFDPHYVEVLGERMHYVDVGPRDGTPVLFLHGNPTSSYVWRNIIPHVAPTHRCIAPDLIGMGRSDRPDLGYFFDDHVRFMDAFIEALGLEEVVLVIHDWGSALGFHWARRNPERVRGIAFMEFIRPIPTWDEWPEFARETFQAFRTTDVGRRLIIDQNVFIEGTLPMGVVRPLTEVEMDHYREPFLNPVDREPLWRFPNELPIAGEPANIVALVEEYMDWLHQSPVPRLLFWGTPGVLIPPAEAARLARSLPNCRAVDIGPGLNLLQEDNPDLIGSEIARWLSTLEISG
Nature of the assay: Halo-biotin competition assay (western blot, streptavidin-HRP). The class given is binding, Corynebacterium glutamicum. The conditions noted are these: 2 μM DH1 preincubation, 1 μM Myc-Halo^8KR-PafA, then 5 μM Halo-Biotin. The method, then: Figure 2. Optimized Halo-PafA and Pup substrates efficiently promote pupylation in vitro in a proximity-dependent manner. […] (B) Comparison of proximity-tagging by different Halo-PafA derivatives on in vitro pupylation. (C) Comparison of different Pup substrates on in vitro pupylation with 500 nM DH1. […] (B–D) All reactions were conducted with 1 μM of a Halo-PafA derivative, 10 μM of one of the different Pup substrates, and 0.5 μM of a purified short SRC with a 2xV5 tag, SRC(247-536)-2xV5, at 37°C for 30 min. Pupylation levels of SRC were assessed by immunoblot (IB) using an anti-V5 antibody. Figure 2—source data 1. […] Figure 2—source data 2. […] Figure 2—figure supplement 1. Synthesis of dasatinib-Halo derivative 1 (DH1). Reagents and conditions: (a) HATU, DIPEA, DMF, RT, 2 hr; (b) NaOH, THF, H2O, RT, 2 hr. RT, room temperature. [drawing 4] Figure 2—figure supplement 2. Representative spectra of DH1. (A) ^1H NMR; (B) HRMS. [drawing 5] Figure 2—figure supplement 3. […] (A) Fluorescence polarization (FP) assay using 2 nM of HaloTag Alexa Fluor-488 (Halo-AF488) at 25°C. n = 2. […] (B) Western blot analysis for the Halo-Biotin competition assay. […] Levels of bound Halo-Biotin were assessed by streptavidin-HRP. (C) Quantitative analysis of western blot results shown in (B). n = 5. […] Pupylation levels of SRC were assessed by immunoblot (IB) using an anti-V5 antibody. […]

The subject of another assay is SRC. Kind of assay: In cellulo pupylation and pulldown assay of SRC in HEK293T cells. The class given is cell-based, Homo sapiens. The conditions noted are these: 500 nM DH1.
Another assay addresses SRC(247-536)-2xV5 (Homo sapiens, UniProt P12931). The conditions noted are these: 500 nM DH1, N-terminal Halo^8KR, 37°C, 30 min.
The next assay concerns the target HA-FKBP-EGFP (Homo sapiens, UniProt P42345+P62942). Kind of assay: Rapamycin-induced pupylation of FKBP-EGFP by FRB-mKate2-PafA in HEK293T cells. The class given is cell-based. The following applies: 100 nM rapamycin.

T1 sequence (A5D8V6 whole entry): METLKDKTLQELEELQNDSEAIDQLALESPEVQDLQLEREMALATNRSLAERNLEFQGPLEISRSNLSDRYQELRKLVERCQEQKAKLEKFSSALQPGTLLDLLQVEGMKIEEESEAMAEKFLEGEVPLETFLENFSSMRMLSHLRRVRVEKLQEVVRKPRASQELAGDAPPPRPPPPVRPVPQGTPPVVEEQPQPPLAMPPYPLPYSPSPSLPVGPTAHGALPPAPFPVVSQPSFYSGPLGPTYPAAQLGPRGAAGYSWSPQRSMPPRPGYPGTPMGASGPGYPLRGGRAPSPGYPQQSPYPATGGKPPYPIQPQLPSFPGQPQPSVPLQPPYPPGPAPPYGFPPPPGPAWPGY
T6 sequence (A5D8V6 whole entry): as above
SRC(247-536)-2xV5, sequence (P12931 247-536): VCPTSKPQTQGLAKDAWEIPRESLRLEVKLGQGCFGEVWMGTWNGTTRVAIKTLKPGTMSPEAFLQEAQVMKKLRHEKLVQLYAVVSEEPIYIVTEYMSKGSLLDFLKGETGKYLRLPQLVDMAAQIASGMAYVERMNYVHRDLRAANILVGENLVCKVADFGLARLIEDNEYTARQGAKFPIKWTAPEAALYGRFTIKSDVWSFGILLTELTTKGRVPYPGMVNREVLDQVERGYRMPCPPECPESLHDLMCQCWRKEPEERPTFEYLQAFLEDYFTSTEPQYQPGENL
HA-FKBP-EGFP, sequence (P62942 whole entry): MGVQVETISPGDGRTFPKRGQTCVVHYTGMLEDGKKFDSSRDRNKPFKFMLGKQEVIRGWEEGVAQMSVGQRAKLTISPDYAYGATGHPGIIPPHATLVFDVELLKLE
HA-FKBP-EGFP, sequence (P42345 2012-2144 limits assumed): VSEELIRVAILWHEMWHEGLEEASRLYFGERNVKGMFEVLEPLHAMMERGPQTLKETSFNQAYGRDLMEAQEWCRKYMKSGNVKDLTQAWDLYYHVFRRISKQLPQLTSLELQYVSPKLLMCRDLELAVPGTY

For orientation: Kd means a measure of binding affinity in units of concentration. With `Clc1ccc2c(NCCCCCCNCCCCCCNc3ccnc4cc(Cl)ccc34)ccnc2c1` [DC660, N^1-(7-Chloroquinolin-4-yl)-N^6-(6-((7-chloroquinolin-4-yl)amino)hexyl)hexane-1,6-diamine], the Kd was determined as 0.0215 ± 0.0098 µM at VPS37C [1] and 25 ± 11.7 µM on VPS29 (n = 2, mean ± s.d.). Further, at TOM1, the “binding to TOM1 (MST)” value is listed as “appeared to bind well”. Further, the “binding to TOM1L2 (MST)” value at TOM1L2 is given as “appeared to bind well”. The “binding to TRAPPC3 (MST)” value on TRAPPC3 is “appeared to bind well”. The “levels of LC3-II band (autophagy inhibition)” value with LC3-II [2] and in the assay on LC3-II [3] was “robust LC3-II bands” in each case. The “VPS37C binding to DC661-H1 under competition” value at VPS37C-V5 is “almost completely abolished”. In addition, at VPS37C [4], the “thermal stability of VPS37C versus DMSO (CETSA)” value was “more stable”.

As for `Cc1nc(Nc2ncc(C(=O)Nc3c(C)cccc3Cl)s2)cc(N2CCN(CCNC(=O)CCCCC(=O)NCCOCCOCCOCCOCCCCCCCl)CC2)n1` [DH1, N1-(2-(4-(6-((5-((2-Chloro-6-methylphenyl)carbamoyl)thiazol-2-yl)amino)-2-methylpyrimidin-4-yl)piperazin-1-yl)ethyl)-N6-(18-chloro-3,6,9,12-tetraoxaoctadecyl)adipamide], the “time for efficient linking to Halo^8KR-PafA” value on Myc-Halo^8KR-PafA is given as at most 15 min. In addition, in the assay on SRC, the “POST-IT labeling of exogenous and endogenous SRC” value is listed as “significant labeling activity”. For the same compound, the “pupylation of purified recombinant short SRC by Halo^8KR-PafA” value at SRC(247-536)-2xV5 is “robust pupylation”.

With `CCN(CCO)CCCC(C)Nc1ccnc2cc(Cl)ccc12` (centres unmarked) [HCQ, hydroxychloroquine, reference compound], the dissociation constant Kd at VPS37C [1] was found to be 16.9 ± 8.7 µM. Besides, the “binding to VPS29 (MST dose-response)” value on VPS29 (n = 2) was “no binding”. In addition, the “binding to TOM1 (MST)” value on TOM1 was “did not show detectable binding”. Further, the “binding to TOM1L2 (MST)” value at TOM1L2 is recorded as “did not show detectable binding”. Moreover, the “binding to TRAPPC3 (MST)” value at TRAPPC3 is “did not show detectable binding”. Further, at VPS37C-V5, the “VPS37C binding to DC661-H1 under competition” value is on record as “almost completely abolished”. Further, the “thermal stability of VPS37C versus DMSO (CETSA)” value at VPS37C [4] is “more stable”.

For `CO[C@H]1C[C@@H]2CC[C@@H](C)[C@@](O)(O2)C(=O)C(=O)N2CCCC[C@H]2C(=O)O[C@H]([C@H](C)C[C@@H]2CC[C@@H](O)[C@H](OC)C2)CC(=O)[C@H](C)/C=C(\C)[C@@H](O)[C@@H](OC)C(=O)[C@H](C)C[C@H](C)/C=C/C=C/C=C/1C` [rapamycin], the “pupylation of FKBP-EGFP by PafA fused with FRB” value at HA-FKBP-EGFP is given as “robust pupylation”.
